# Experimental data published in patent publication US20170119790A1, “Agents, Uses and Methods” (CYTOGUIDE A/S, priority 2009, published 2017).
# Entries after “also recorded” stand apart in the source; their conditions may differ. Read-outs that look alike come from different tables or passages of the source.
# Tests used:
# [1] = system: LPS mediated TNFα stimulation; assay: Rat in vivo LPS model; parameters: species or system Lewis rats
# [2] = system: LPS mediated TNFα stimulation of rat macrophages / spleen cells; assay: Rat in vitro LPS model; assay type: cell-based; conditions: 1 μg/ml, LPS 20 hours, FIG. 37
# Method: Rat or mouse peritoneal or spleen cell suspensions were prepared from female Lewis rats (Harlan) or BalB/cA mice (Taconic). Human mononuclear cells were isolated from buffycoats (Skejby University Hospital) as described above. The purified cells were suspended in RPMI medium supplemented with 10% FCS and 2 mM L-glutamine and cultured (2×10^5 per well) overnight in 96-well flat bottomed plates (125 μl per well) at 37° C. and 5% CO2. Glucocorticoid conjugates (Example 8), free glucocorticoids or PBS were serial diluted in supplemented RPMI medium and added (100 μl) to the overnight cell cultures at final concentrations ranging from 1-10^−7 μg glucocorticoid/ml. After incubation for a specific time ranging from 30 min-24 hours, 150 μl supernatant was carefully aspirated and 150 μl supplemented RPMI medium added to the wells before further incubation overnight. Each incubation condition was tested in duplicates or triplicates. After 16-20 hours, the cells were challenged with lipopolysaccharide (LPS) (250 ng/ml) for 4 hours before supernatant was aspirated from each well and frozen at -20° C.
# [3] = system: LPS mediated TNFα stimulation; conditions: serum 2 hours post LPS challenge, FIG. 42
# [4] = system: collagen-induced arthritis; conditions: for body weight after initiation of treatment: FIG. 47; for day of disease onset: mean±SD; for thymus weight compared to vehicle: at sacrifice
# Method: The effect of dexamethasone on arthritis development in the rat CIA model was tested at three dosages (0.01, 0.1 and 1 mg/kg). Dexamethasone was administered intravenously on day 10 (day of disease onset), 13, 16 and 19. […] Treatment with vehicle (PBS/2.5% EtOH) served as negative control. Rats were sacrificed 21 days after immunization.
# Collagen arthritis was induced in 9 weeks old female Lewis rats using a two-step immunization protocol. On day 0, all mice were immunized by intradermal injection of 1 mg/ml bovine type II collagen emulsified in Incomplete Freund's adjuvant at several sites at the back. Arthritis development was accelerated by an intradermal boost in the back and tail-base with 100 Sg bovine type II collagen in IFA on day 7. In order to perform immunization and intradermal boost, rats were anesthetized by inhalation of 3-4% isoflurane in a mixture of oxygen and N2O.
# Rats were evaluated 6 times per week (once during weekends) for arthritis severity using a macroscopic scoring system of 0-4 for each paw as detailed below: • 0=no signs of arthritis • 0.5=unloading of the paw and/or light redness of ankle joint • 1=redness and mild swelling of the ankle joint • 2=redness and swelling of paw • 3=severe redness and swelling of entire paw including digits • 4=maximally swollen paw, often involvement of multiple joints and extending towards knee joint.
# The total clinical score of an individual rat is defined as the sum of the clinical scores of all four paws for each day. At the end of the study, the cumulative arthritis score was calculated for each rat. This cumulative arthritis score is defined as the sum of the total clinical scores obtained from day 0 till day 21.
# The day of disease is defined as the first day of three consecutive days on which a total arthritis score of more than 0 was observed.
# The swelling of the hind paws was measured during weekdays with a laser scan micrometer (Mitutoyo, LSM-503S/6200). At the end of the study, the cumulative paw swelling was calculated for each rat as follows: a baseline value was determined by averaging the paw thickness values of day 0-9 when no signs of arthritis were visible. Next, increase in paw thickness was calculated by subtracting the baseline value from the paw thickness values obtained on day 10-21 (delta value). Cumulative paw swelling is defined as the sum of the delta paw thickness values from day 10 till 21.
# Spleen, thymus and liver were isolated and weighed at sacrifice. Weights were normalized for body weight.
# Collagen-induced arthritis (CIA) was induced in female Lewis rats (9 weeks of age) by intradermal injection of approximately 1 mg bovine type II collagen (Chondrex) emulsified in Incomplete Freund's adjuvant (IFA). The rats were immunized at several sites at the back under isoflurane anaesthesia (day 0) and boosted intradermal at the back and tail-base with 100 μg bovine type II collagen in IFA at day 7. The rats were scored 6 times per weeks for clinical signs of arthritis. Clinical severity of CIA was determined by swelling of individual joints and the number of affected joints in the front and rear paws. Each paw was scored from 1 to 4, so the maximum clinical score, including all four paws was 16.
# A total of 20 rats were divided into five treatment groups (4 rats each). […] Changes in ankle size and body weight were monitored during the treatment process. On day 21, all animals were sacrificed and joint tissue, spleen, liver and thymus were dissected.
smiles,measurement,setting,value
C[C@@H]1C[C@H]2[C@@H]3CCC4=CC(=O)C=C[C@]4(C)[C@@]3(F)[C@@H](O)C[C@]2(C)[C@@]1(O)C(=O)CO [dexamethasone],spleen and thymus weight compared with rats injected with ED2-dexamethasone,"[1]; 2 days post LPS injection, FIG. 39B and C",significantly lower
same,level of TNFα lower compared to vehicle,"[1]; i.v. 20 hours before LPS, serum 2 hours after LPS, FIG. 39A",2 fold
same,TNFα concentration higher in supernatants of macrophages stimulated without the agent (ED2 or PBS),[2],approximately 10 fold
same,TNFα level lower compared to vehicle,[3],2 fold
same,cumulative arthritis score reduced with respect to the vehicle group,[4]; 0.01 mg/kg,39%
same,day on which disease incidence of 100% was reached,[4]; 0.01 mg/kg,14 days
same,body weight after initiation of treatment,[4]; 0.01 mg/kg,a certain degree of body weight loss
same,cumulative arthritis score reduced with respect to the vehicle group,[4]; 0.1 mg/kg,69%
same,day of disease onset,"[4]; 0.1 mg/kg i.v. day 10, 13, 16, 19",13.8 ± 1.0 days
same,thymus weight compared to vehicle,[4]; 0.1 mg/kg,significantly decreased; also recorded: significantly lower
same,cumulative arthritis score reduced with respect to the vehicle group,[4]; 1 mg/kg,91%
same,day of disease onset,"[4]; 1 mg/kg i.v. day 10, 13, 16, 19",18.3 ± 2.1 days
same,thymus weight compared to vehicle,[4]; 1 mg/kg,significantly decreased
same,spleen and liver weights compared to vehicle,"[4]; 0.01, 0.1 and 1 mg/kg groups",No significant differences
same,body weight after initiation of treatment,"[4]; 0.01, 0.1 and 1 mg/kg groups",decreased gradually
